In article PMC7997574, “Lead Optimization of Benzoxazolone Carboxamides as Orally Bioavailable and CNS Penetrant Acid Ceramidase Inhibitors” (Journal of Medicinal Chemistry, 2020):
Values after ≈ are worked out from the molar mass of the structure shown.

Legend:
[1] = Aqueous kinetic solubility assay; type: physicochemical; conditions: PBS, pH 7.4
Procedure: The aqueous kinetic solubility was determined from a 10 mM MeCN stock solution of test compound in Phosphate-Buffered Saline (PBS) at pH 7.4. The study was performed by incubation of an aliquot of 10 mM MeCN stock solution in PBS (pH 7.4) at a target concentration of 250 μM. The incubation was carried out under shaking at 25 °C for 1 h followed by centrifugation at 21100 × g for 30 min. The supernatant was analyzed by UPLC/MS for the quantification of the dissolved compound (in μM) by UV at a specific wavelength (215 nm). […] The UPLC/MS analyses were performed on a Waters ACQUITY UPLC/MS system consisting of a single quadrupole detector (SQD) Mass Spectrometer (MS) equipped with an Electrospray Ionization (ESI) interface and a Photodiode Array Detector (PDA). The PDA range was 210–400 nm. ESI in positive mode was used in the mass scan range of 100–650 Da. The analyses were run on an ACQUITY UPLC BEH C18 column (50 × 2.1 mm ID, particle size 1.7 μm) with a VanGuard BEH C18 precolumn (5 × 2.1 mm ID, particle size 1.7 μm), using 10 mM NH4OAc in H2O at pH 5 adjusted with AcOH (A) and 10 mM NH4OAc in MeCN/H2O (95:5) at pH 5 (B) as the mobile phase. Values are reported as mean values of ≥2 experiments performed.

[2] = In vitro plasma stability study; type: in vitro ADME; conditions: mouse plasma; read-out: m-plasma t1/2
Procedure: Freshly prepared 10 mM MeCN stock solution of test compound was diluted 50-fold with DMSO/H2O (1:1) and incubated at 37 °C for 2 h with mouse plasma added in 5% DMSO (preheated at 37 °C for 10 min). The final concentration was 2 μM. At each time point (0, 5, 15, 30, 60, and 120 min), 50 μL of incubation mixture was diluted with 200 μL of cold MeCN spiked with 200 nM internal standard followed by centrifugation at 3300 × g for 20 min. The supernatant was further diluted with H2O (1:1) for analysis. The concentration of test compound was quantified by LC/MS/MS on a Waters ACQUITY UPLC/MS TQD system consisting of a TQD MS equipped with an ESI interface. The analyses were run on an ACQUITY UPLC BEH C18 (50 × 2.1 mm ID, particle size 1.7 μm) with a VanGuard BEH C18 precolumn (5 × 2.1 mm ID, particle size 1.7 μm) at 40 °C. For each compound, the appropriate mobile phase was chosen. ESI was applied in positive mode. The response factors, calculated on the basis of the internal standard peak area, were plotted over time. When possible, response vs time profiles were fitted with Prism (GraphPad Software, Inc., USA) to estimate compound t1/2 in plasma. Values are the mean of at least two independent experiments performed in two technical replicates.

[3] = In vitro microsomal stability study; type: in vitro ADME; conditions: mouse liver microsomes; for m-LM [% at 60 min]: % remaining at 60 min; for half-life at 4.6 μM / half-life at 1 h, 4.6 µM: pH 7.4, read-out: m-LM t1/2
Procedure: Freshly prepared 10 mM MeCN stock solution of test compound was preincubated at 37 °C for 15 min with mouse liver microsomes added in 0.1 M Tris HCl buffer (pH 7.4). The final concentration was 4.6 μM. After preincubation, the cofactors (NADPH, G6P, G6PDH, and MgCl2 predissolved in 0.1 M Tris HCl) were added to the incubation mixture, and the incubation was continued at 37 °C for 1 h. At each time point (0, 5, 15, 30, and 60 min), 30 μL of incubation mixture was diluted with 200 μL of cold MeCN spiked with 200 nM internal standard followed by centrifugation at 3300 × g for 15 min. The supernatant was further diluted with H2O (1:1) for analysis. The concentration of the test compound was quantified by LC/MS/MS on a Waters ACQUITY UPLC/MS TQD system consisting of a TQD MS equipped with an ESI interface. The analyses were run on an ACQUITY UPLC BEH C18 (50 × 2.1 mm ID, particle size 1.7 μm) with a VanGuard BEH C18 precolumn (5 × 2.1 mm ID, particle size 1.7 μm) at 40 °C. For each compound, the appropriate mobile phase was chosen. ESI was applied in positive mode. The percentage of test compound remaining at each time point relative to t = 0 was calculated. t1/2 was determined by a one-phase decay equation using a nonlinear regression of compound concentration vs time. Values are the mean of at least two independent experiments performed in two technical replicates.

AC = molecular target: T1, AC (Homo sapiens, UniProt Q13510); experiment: Fluorogenic hAC assay on hAC-enriched lysate of HEK293 cells; type: biochemical; set-up: expressed in transfected cells; conditions: hAC expressed in HEK-293 cells; read-out: hAC IC50 (μM)±SD
T1 sequence (Q13510 22-395): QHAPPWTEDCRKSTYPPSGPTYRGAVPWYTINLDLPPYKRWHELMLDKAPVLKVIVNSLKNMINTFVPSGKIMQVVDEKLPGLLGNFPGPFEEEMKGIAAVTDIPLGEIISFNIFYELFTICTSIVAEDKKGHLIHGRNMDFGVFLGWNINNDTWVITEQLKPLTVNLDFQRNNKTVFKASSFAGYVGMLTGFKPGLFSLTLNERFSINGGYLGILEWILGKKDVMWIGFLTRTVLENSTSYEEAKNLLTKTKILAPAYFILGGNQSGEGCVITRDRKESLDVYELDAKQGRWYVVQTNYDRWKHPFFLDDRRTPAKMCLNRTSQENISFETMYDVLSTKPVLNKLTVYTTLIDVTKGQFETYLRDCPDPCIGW
Procedure: HEK293 cells stably expressing hAC were grown in Dulbecco’s modified Eagle medium (DMEM) containing 10% FBS, 1% glutamine, 1 mM sodium pyruvate, and 500 μg mL^–1 G418. Cells were harvested, and pellets were stored at −80 °C until lysosomal-enriched lysate preparation. Cells were suspended in 20 mM Tris HCl (pH 7.5) with 0.32 M sucrose, sonicated, and centrifuged at 800 × g for 30 min at 4 °C. Supernatants were then centrifuged at 12000 × g for 30 min at 4 °C. Pellets were resuspended in PBS (pH 7.4) and subjected to three freeze–thaw cycles at −80 °C. The suspension was finally centrifuged at 105000 × g for 1 h at 4 °C, and protein concentration was measured in the supernatant with the bicinchoninic acid based protein assay. This hAC-enriched preparation allowed us to further optimize the enzymatic assay and to use small amounts of lysate (2 μg per well) at a 5 μM substrate (Rbm14–12) around its KM (KM = 5.0 μM).
The assay was performed in Optiplate 96-well black plates, with each reaction well containing a mixture of 25 mM NaOAc buffer (pH 4.5) and a fixed amount of protein (2 μg) in a volume of 85 μL. After 10 min of preincubation with test compounds (diluted 20× from DMSO stock solutions at different concentrations), the fluorogenic probe was added (diluted 40× from EtOH stock solution, final concentration 5 μM). After 3 h of incubation at 37 °C, reactions were stopped with 50 μL of MeOH and 100 μL of a 2.5 mg mL^–1 NaIO4 fresh solution in 100 mM glycine/NaOH buffer (pH 10.6). The plates were further incubated for 2 h at 37 °C in the dark, and fluorescence intensities were measured at excitation/emission wavelengths of 355/460 nm. Negative control samples consisted of the same incubation mixture in the absence of protein-enriched extracts. Data were plotted as a function of compound concentrations. IC50 values were calculated by nonlinear regression analysis using GraphPad Prism 5 (GraphPad Software Inc., CA, USA) applying a standard slope curve fitting. The reported IC50 values are the mean of at least three independent experiments performed in three technical replicates.

Row | solubility at 1 h [1] | half-life at 2 µM [2] | m-LM [% at 60 min] [3] | half-life at 4.6 μM [3] | IC50 (AC) | half-life at 1 h, 4.6 µM [3] | half-life at 2 μM [2] | Structure (SMILES)
1 | 150 µM | 60 min | 70% | > 60 min | 0.134 ± 0.014 µM | – | – | Cl.O=C(NCCCCc1ccccc1)n1c(=O)oc2cc(C3CCNCC3)ccc21 [22d, 2-Oxo-N-(4-phenylbutyl)-6-(4-piperidyl)-1,3-benzoxazole-3-carboxamide Hydrochloride]
2 | 120 µM (≈ 48.9 µg/mL) | 50 min | – | – | 0.129 ± 0.008 µM | 40 min | – | CN1CCC(c2ccc3c(c2)oc(=O)n3C(=O)NCCCCc2ccccc2)CC1 [22e, 6-(1-Methyl-4-piperidyl)-2-oxo-N-(4-phenylbutyl)-1,3-benzoxazole-3-carboxamide]
3 | 198 µM (≈ 83.5 µg/mL) | 50 min | – | – | 0.092 ± 0.043 µM | 60 min | – | CCN1CCC(c2ccc3c(c2)oc(=O)n3C(=O)NCCCCc2ccccc2)CC1 [22f, 6-(1-Ethyl-4-piperidyl)-2-oxo-N-(4-phenylbutyl)-1,3-benzoxazole-3-carboxamide]
4 | 50 µM (≈ 21.8 µg/mL) | 40 min | – | – | 0.094 ± 0.042 µM | 60 min | – | CC(C)N1CCC(c2ccc3c(c2)oc(=O)n3C(=O)NCCCCc2ccccc2)CC1 [22g, 6-(1-Isopropyl-4-piperidyl)-2-oxo-N-(4-phenylbutyl)-1,3-benzoxazole-3-carboxamide]
5 | < 1 µM | – | – | 60 min | 0.12 ± 0.03 µM | – | 60 min | CC(C)CN1CCC(c2ccc3c(c2)oc(=O)n3C(=O)NCCCCc2ccccc2)CC1 [22h, 6-(1-Isobutyl-4-piperidyl)-2-oxo-N-(4-phenylbutyl)-1,3-benzoxazole-3-carboxamide]
6 | < 1 µM | 30 min | – | – | 0.064 ± 0.029 µM | 60 min | – | CC(=O)N1CCC(c2ccc3c(c2)oc(=O)n3C(=O)NCCCCc2ccccc2)CC1 [22i, 6-(1-Acetyl-4-piperidyl)-2-oxo-N-(4-phenylbutyl)-1,3-benzoxazole-3-carboxamide]
7 | 73 µM (≈ 29.9 µg/mL) | 40 min | – | – | 0.215 ± 0.013 µM | 30 min | – | CN1CCC(c2ccc3c(c2)oc(=O)n3C(=O)NCCOCc2ccccc2)CC1 [22j, N-(2-Benzyloxyethyl)-6-(1-methyl-4-piperidyl)-2-oxo-1,3-benzoxazole-3-carboxamide]
8 | 240 µM (≈ 82.9 µg/mL) | 75 min | >60 [60%] | > 60 min | 0.396 ± 0.075 µM | – | > 60 min | CCCCCNC(=O)n1c(=O)oc2cc(C3CCN(C)CC3)ccc21 [22k, 6-(1-Methyl-4-piperidyl)-2-oxo-N-pentyl-1,3-benzoxazole-3-carboxamide]
9 | 22 µM (≈ 9.36 µg/mL) | 20 min | – | – | 0.094 ± 0.03 µM | 30 min | – | CN1CCC(c2ccc3c(c2)oc(=O)n3C(=O)NCCCCc2ccc(F)cc2)CC1 [22o, N-[4-(4-Fluorophenyl)butyl]-6-(1-methyl-4-piperidyl)-2-oxo-1,3-benzoxazole-3-carboxamide]
10 | 70 µM (≈ 29.8 µg/mL) | 20 min | 70% | > 60 min | 0.024 ± 0.002 µM | – | – | CN1CCC(c2cc3oc(=O)n(C(=O)NCCCCc4ccccc4)c3cc2F)CC1 [22p, 5-Fluoro-6-(1-methyl-4-piperidyl)-2-oxo-N-(4-phenylbutyl)-1,3-benzoxazole-3-carboxamide]
11 | 20 µM (≈ 8.43 µg/mL) | 36 min | – | – | 0.105 ± 0.055 µM | 35 min | – | CN1CCC(c2ccc3c(c2)oc(=O)n3C(=O)NCCCCc2ccccc2)CC1=O (stereo not drawn) [22q, 6-(1-Methyl-2-oxo-4-piperidyl)-2-oxo-N-(4-phenylbutyl)-1,3-benzoxazole-3-carboxamide]
12 | < 1 µM | 50 min | – | – | 0.095 ± 0.03 µM | 20 min | – | O=C(NCCCCc1ccccc1)n1c(=O)oc2cc(C3CCN(CC(F)F)CC3)ccc21 [22r, 6-[1-(2,2-Difluoroethyl)-4-piperidyl]-2-oxo-N-(4-phenylbutyl)-1,3-benzoxazole-3-carboxamide]
13 | 20 µM | 30 min | – | – | 0.363 ± 0.18 µM | 45 min | – | Cl.O=C(NCCCCc1ccccc1)n1c(=O)oc2cc(N3CCNCC3)ccc21 [23e, 2-Oxo-N-(4-phenylbutyl)-6-piperazin-1-yl-1,3-benzoxazole-3-carboxamide Hydrochloride]
14 | < 1 µM | – | – | < 5 min | 0.116 ± 0.069 µM | – | < 5 min | CN1CCN(c2ccc3c(c2)oc(=O)n3C(=O)NCCCCc2ccccc2)CC1 [23f, 6-(4-Methylpiperazin-1-yl)-2-oxo-N-(4-phenylbutyl)-1,3-benzoxazole-3-carboxamide]
